Patent US20080194585A1, “Fungicidal Pyrazine Derivatives” (priority 2005, published 2008)
Marks after values point to notes of the source that are not given here.

How the values were obtained:
[1] = test system: Plasmopara viticola; experiment: Test D: grape downy mildew, spray after inoculation of grape seedlings; assay type: in vivo
Source text: Upon removal, disease ratings were made. […] A dash (-) indicates no test results.

[2] = test system: Phytophthora infestans; experiment: whole plant or invertebrate; assay type: in vivo
[3] = test system: Septoria tritici; experiment: Test J: wheat leaf blotch, preventive spray on wheat seedlings; assay type: in vivo
Source text: A dash (-) indicates no test results.

[4] = test system: fusarium graminearium; experiment: Test I: wheat head scab, preventive spray on wheat seedlings
Procedure: (the causal agent of wheat head scab) and incubated in a saturated atmosphere at 20° C. for 72 h, and then moved to a growth chamber at 22° C. for 5 days, after which disease ratings were made.

[5] = test system: Puccinia recondita f. sp. tritici; experiment: Test K: wheat leaf rust, preventive spray on wheat seedlings
[6] = test system: Botrytis cinerea; experiment: Test E: tomato botrytis, preventive spray on tomato seedlings
[7] = test system: Septoria nodorum; experiment: Test H: wheat glum blotch, preventive spray on wheat seedlings
Procedure: (the causal agent of wheat glum blotch) and incubated in a saturated atmosphere at 20° C. for 48 h, and then moved to a growth chamber at 22° C. for 5 days, after which disease ratings were made.

[8] = test system: Erysiphe graminis f. sp. tritici; experiment: Test L: wheat powdery mildew, preventive spray on wheat seedlings
[9] = test system: Pythium aphanidermatum; experiment: Test A: bluegrass pythium blight, preventive spray on bluegrass seedlings
[10] = test system: Rhizoctonia oryzae; experiment: Test G: turf brown patch, preventive spray on creeping bent grass seedlings
Procedure: (the causal agent of turf brown patch) and incubated in a saturated atmosphere at 27° C. for 24 h, and then moved to a growth chamber at 27° C. for 5 days, after which disease ratings were made.

[11] = test system: Colletotrichum orbiculare; experiment: Test B: cucumber Colletotrichum anthracnose, preventive spray on cucumber seedlings

Row | Compound | Test D disease control rating ([1]; 200 ppm) [%] | Test F disease control rating ([2]; 200 ppm) [%] | Test J disease control rating ([3]; 200 ppm) [%] | Test I disease control rating ([4]; 200 ppm) [%] | Test K disease control rating ([5]; 200 ppm) [%] | Test E disease control rating ([6]; 200 ppm) [%] | Test H disease control rating ([7]; 200 ppm) [%] | Test L disease control rating ([8]; 200 ppm) [%] | Test A disease control rating ([9]; 200 ppm) [%] | Test G disease control rating ([10]; 200 ppm) [%] | Test B disease control rating ([11]; 200 ppm) [%] | Test J disease control rating ([3]; 40 ppm (*)) | Test K disease control rating ([5]; 40 ppm (*)) | Test E disease control rating ([6]; 40 ppm (*)) | Test H disease control rating ([7]; 40 ppm (*)) | Test L disease control rating ([8]; 40 ppm (*)) | Test G disease control rating ([10]; 40 ppm (*)) | Test B disease control rating ([11]; 40 ppm (*)) | also measured
1 | CC(C)Cn1c(-c2c(F)cccc2F)c(Cl)nc(-c2cnn(C)c2)c1=O [compound 100] | 0 | 0 | 3 | 0 | 26 | 0 | 0 | 13 | 0 | 0 | 0 |  |  |  |  |  |  |  | 
2 | CC(C)Cn1c(-c2c(F)cccc2F)c(Cl)nc(-c2nccn2C)c1=O [compound 102] | 0 | 0 | 0 | 0 | 0 | 0 | 0 | 0 | 0 | 0 | 0 |  |  |  |  |  |  |  | 
3 | CC(C)Cn1c(-c2c(F)cccc2F)c(Cl)nc(-c2ccnn2C)c1=O [compound 103] | 0 | 0 | 3 | 0 | 0 | 0 | 0 | 0 | 0 | 0 | 0 |  |  |  |  |  |  |  | 
4 | O=c1c(-n2cncn2)nc(Cl)c(-c2c(F)cccc2F)n1Cc1ccccc1 [compound 105] | 0 | 0 | 98 | 0 | 100 | 100 | 64 | 0 | 0 | 24 | 0 |  |  |  |  |  |  |  | 
5 | N#Cc1nc(Cl)c(-c2c(F)cccc2F)n(Cc2ccccc2)c1=O [compound 106] | 0 | 0 | 12 | 0 | 91 | 0 | 0 | 94 | 0 | 0 | 0 |  |  |  |  |  |  |  | 
6 | CC(c1ccccc1)n1c(-c2c(F)cccc2F)c(Cl)nc(-n2cccn2)c1=O (stereo not drawn) [compound 107] | 0 | 0 | 93 | 69 | 98 | 0 | 0 | 0 | 0 | 0 | 0 |  |  |  |  |  |  |  | 
7 | CC(c1ccccc1)n1c(-c2c(F)cccc2F)c(Cl)nc(-n2cncn2)c1=O (stereo not drawn) [compound 108] | 0 | 0 | 11 | 0 | 0 | 56 | 0 | 0 | 0 | 0 | 0 |  |  |  |  |  |  |  | 
8 | CC(c1ccccc1)n1c(-c2c(F)cccc2F)c(Cl)nc(C#N)c1=O (stereo not drawn) [compound 109] | 0 | 0 | 0 | 0 | 0 | 0 | 0 | 0 | 0 | 0 | 0 |  |  |  |  |  |  |  | 
9 | CC(C)Cn1c(-c2c(Cl)ccc(Cl)c2Cl)c(Cl)nc(-n2cccn2)c1=O [compound 121] | 0 | 0 |  | 0 |  |  |  |  | 0 |  |  | 100* % | 99* % | 100* % | 99* % | 0* % | 44* % | 91* % | 
10 | CCC(C)Cn1c(-c2c(F)cccc2F)c(Cl)nc(NN(C)C)c1=O (stereo not drawn) [compound 134] | 0 | 0 |  | 89 |  |  |  |  | 0 |  |  | 59* % | 28* % | 0* % | 0* % | 0* % | 0* % | 0* % | 
11 | CCC(C)Cn1c(-c2c(F)cccc2F)c(Cl)nc(NN2CCOCC2)c1=O (stereo not drawn) [compound 135] | 0 | 0 |  | 0 |  |  |  |  | 0 |  |  | 0* % | 0* % | 0* % | 0* % | 0* % | 0* % | 0* % | 
12 | Cc1cc(C)cc(-c2c(Cl)nc(-n3cncn3)c(=O)n2CC(C)C)c1 [compound 136] | 40 | 58 |  | 0 |  |  |  |  | 0 |  |  | 28* % | 0* % | 0* % | 0* % | 0* % | 0* % | 0* % | 
13 | Cc1cc(C)cc(-c2c(Cl)nc(-n3cccn3)c(=O)n2CC(C)C)c1 [compound 137] | 0 | 0 | 30 | 0 |  |  |  |  | 0 |  |  |  | 0* % | 0* % | 0* % | 0* % | 0* % | 0* % | 
14 | CCCCn1c(-c2c(F)cccc2F)c(Cl)nc(-n2cccn2)c1=O [compound 148] | 73 | 0 |  | 0 |  |  |  |  | 0 |  |  | 100* % | 97* % | 99* % | 100* % | 98* % | 81* % | 47* % | 
15 | CC(C)Cn1c(-c2cc(C(F)(F)F)cc(C(F)(F)F)c2)c(Cl)nc(-n2cccn2)c1=O [compound 150] |  |  |  |  |  |  |  |  |  |  |  | 0* % | 0* % | 0* % | 0* % | 0* % | 0* % | 0* % | Test D disease control rating ([1]; 40 ppm (*)): 0* %; Test F disease control rating ([2]; 40 ppm (*)): 0* %; Test I disease control rating ([4]; 40 ppm (*)): 0* %; Test A disease control rating ([9]; 40 ppm (*)): 0* %
16 | CC(C)Cn1c(-c2ccc(Cl)o2)c(Cl)nc(-n2cccn2)c1=O [compound 151] | 31 | 33 |  | 0 |  |  |  |  | 0 |  |  | 12* % | 19* % | 98* % | 0* % | 0* % | 0* % | 0* % | 
17 | CC(C)Cn1c(-c2ccc(Cl)s2)c(Cl)nc(-n2cccn2)c1=O [compound 152] | 16 | 0 |  | 0 |  |  |  |  | 0 |  |  | 91* % | 55* % | 100* % | 0* % | 0* % | 0* % | 0* % | 
18 | CC(C)Cn1c(-c2ccoc2)c(Cl)nc(-n2cccn2)c1=O [compound 153] | 31 | 0 |  | 0 |  |  |  |  | 0 |  |  | 20* % | 0* % | 79* % | 0* % | 0* % | 0* % | 0* % | 
